The values that follow come from ChEMBL document CHEMBL1201862, “PubChem BioAssay data set” (2004).

Among the test systems are A498; CAKI-1; HCC 2998; HL-60; HOP-92; Malme-3M; NCI-H226; NCI-H460; OVCAR-5; OVCAR-8; SF-268; SF-295; SK-MEL-28; SN12C; SNB-75; SW-620; U-251; UO-31; 786-0; TK-10.
Holding throughout (experiment): DTP human tumour cell line panel, 48 h

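Compound exposure: 48 hours, 5 concentrations, 96-well plates. GI50 = concentration required for 50% inhibition of growth.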 Active and inactive are the calls of the source. Cut-off read from the data, not from the text of the source: active = GI50 up to about 1.1 µM and inactive = higher.

On to `CN(C)CCNC(=O)c1cccc2ccc(-c3ccc(Br)cc3)nc12`, for which the GI50 with A498 is 1.99 µM (inactive); with CAKI-1 it was 1.3 µM (inactive); in the assay on HCC 2998 it was 1.85 µM (inactive); in the assay on HL-60, 1.23 µM (inactive); in the assay on HOP-92, 2.49 µM (inactive); in the assay with Malme-3M, 2.55 µM (inactive). Also, the GI50 in the assay on NCI-H226 is 1.89 µM (inactive); with NCI-H460, 0.767 µM (active); in the assay on OVCAR-5 it was 2.96 µM (inactive); with OVCAR-8, 1.55 µM (inactive); with SF-268 it was 3.92 µM (inactive); with SF-295 it was 3.76 µM (inactive). Moreover, the GI50 with SK-MEL-28 is 3.76 µM (inactive); in the assay with SN12C, 2.33 µM (inactive); with SNB-75, 3.27 µM (inactive); in the assay with SW-620 it was 1.17 µM (inactive); with U-251, 2.8 µM (inactive); with UO-31 it was 1.76 µM (inactive).
Take `CCN(CC)C(=O)CCN1CC1`: the GI50 in the assay with 786-0, with A498, in the assay with CAKI-1, in the assay on HCC 2998, with HL-60 and in the assay with HOP-92 was > 10 µM (inactive) throughout. For the same compound, the GI50 with Malme-3M, in the assay on NCI-H226, in the assay with NCI-H460, in the assay with OVCAR-5, in the assay with OVCAR-8 and with SF-268 was > 10 µM (inactive) in each case. Also, the GI50 with SF-295, with SK-MEL-28, with SN12C, in the assay with SNB-75, in the assay with TK-10 and in the assay on U-251 was > 10 µM (inactive) in each case. Besides, the GI50 with UO-31 is > 10 µM (inactive).
For the compound `COc1ccc(C2COc3c(ccc(O)c3C)C2)cc1OC` (configuration not stated), the GI50 is 11.2 µM (inactive) in the assay with A498; 112 µM (inactive) in the assay with CAKI-1; 27.9 µM (inactive) in the assay on HCC 2998; 21.6 µM (inactive) in the assay with HL-60; 53.5 µM (inactive) in the assay with HOP-92; 121 µM (inactive) in the assay with Malme-3M. In addition, the GI50 in the assay on NCI-H226 was 57.5 µM (inactive); in the assay on NCI-H460 it was 62.7 µM (inactive); in the assay on OVCAR-5, 119 µM (inactive); with OVCAR-8, 113 µM (inactive); in the assay on SF-268 it was 106 µM (inactive); in the assay on SF-295, 58.9 µM (inactive). The GI50 with SK-MEL-28 is 121 µM (inactive); with SN12C, 104 µM (inactive); in the assay on SNB-75 it was 38.1 µM (inactive); in the assay on SW-620 it was 81.3 µM (inactive); with U-251, 64.6 µM (inactive); with UO-31 it was 66.1 µM (inactive).
Regarding `Cn1c(=O)n(C2(C)C[Se]C2)c2ccccc21`, the GI50 in the assay on 786-0 is > 100 µM (inactive); with A498 it was > 100 µM (inactive); with CAKI-1 it was > 100 µM (inactive); in the assay with HCC 2998, 65.3 µM (inactive); with HL-60, > 100 µM (inactive); in the assay with HOP-92 it was > 100 µM (inactive). Moreover, the GI50 in the assay on NCI-H226, in the assay with NCI-H460, in the assay on OVCAR-5, in the assay on OVCAR-8, with SF-268 and with SF-295 was > 100 µM (inactive) each time. The GI50 with SK-MEL-28, with SN12C, in the assay with SNB-75, in the assay with SW-620, in the assay with TK-10 and in the assay with U-251 was > 100 µM (inactive) each time. In addition, in the assay on UO-31, the GI50 is > 100 µM (inactive).
Regarding `O=S(=O)(Cc1nc2ccccc2s1)c1nc2ccccc2s1`, the GI50 in the assay with 786-0 was 17.4 µM (inactive); in the assay on A498, 19.2 µM (inactive); in the assay on HCC 2998, 16.4 µM (inactive); with HL-60, 8.11 µM (inactive); in the assay with HOP-92, 12.9 µM (inactive); with Malme-3M, 11.3 µM (inactive). Also, the GI50 in the assay on NCI-H226 was 26.5 µM (inactive); in the assay on NCI-H460, 38 µM (inactive); in the assay on OVCAR-5 it was 20 µM (inactive); in the assay with OVCAR-8, 19.4 µM (inactive); in the assay on SF-268, 15.6 µM (inactive); in the assay with SF-295 it was 26.2 µM (inactive). For the same compound, the GI50 was 15.6 µM (inactive) in the assay on SK-MEL-28; 16.8 µM (inactive) in the assay on SN12C; 18.3 µM (inactive) in the assay with SNB-75; 17.2 µM (inactive) in the assay on SW-620; 20 µM (inactive) in the assay on TK-10; 18.5 µM (inactive) in the assay on U-251. Also, the GI50 in the assay on UO-31 is 16.7 µM (inactive).
As to `CC(C)(C)Sc1nnc(SC(C)(C)C)c2c(SC(C)(C)C)nnc(O)c12`, the GI50 is 10.1 µM (inactive) in the assay on 786-0; 14 µM (inactive) in the assay on A498; 3.58 µM (inactive) with CAKI-1; 11.5 µM (inactive) in the assay on HCC 2998; 2.14 µM (inactive) with HL-60; 2.49 µM (inactive) in the assay on HOP-92. In addition, the GI50 is 13.1 µM (inactive) with Malme-3M; 15.2 µM (inactive) with NCI-H226; 6.25 µM (inactive) in the assay with NCI-H460; 4.61 µM (inactive) with OVCAR-5; 10 µM (inactive) in the assay on OVCAR-8; 7.53 µM (inactive) in the assay with SF-268. Further, the GI50 in the assay with SF-295 is 11.4 µM (inactive); with SN12C, 10.2 µM (inactive); in the assay with SNB-75, 11.8 µM (inactive); with SW-620, 6.87 µM (inactive); in the assay with TK-10, 23.2 µM (inactive); in the assay with U-251 it was 5.62 µM (inactive). The GI50 in the assay with UO-31 is 5.73 µM (inactive).
`C=C1C(=O)O[C@@H]2OC3(C)CCC4C(C)CCC1C42OO3` (some centres not stated): the GI50 in the assay with A498 is 3.33 µM (inactive); with CAKI-1, 2.36 µM (inactive); in the assay on HCC 2998, 13.1 µM (inactive); in the assay with HL-60, 0.449 µM (active); with HOP-92, 1.85 µM (inactive); with NCI-H226, 11.5 µM (inactive). The GI50 in the assay on NCI-H460 is 2.38 µM (inactive); with OVCAR-5 it was 15.7 µM (inactive); in the assay on OVCAR-8, 3.09 µM (inactive); with SF-268 it was 2.94 µM (inactive); with SF-295, 3.85 µM (inactive); with SK-MEL-28, 11.5 µM (inactive). Also, the GI50 in the assay with SN12C was 3.82 µM (inactive); with SNB-75, 3.59 µM (inactive); in the assay with SW-620 it was 3.05 µM (inactive); in the assay on U-251 it was 4.85 µM (inactive); with UO-31 it was 9.84 µM (inactive).
Consider `Nc1ccccc1NC(=O)c1ccc(CNC(=O)OCc2cccnc2)cc1` [ENTINOSTAT], for which the GI50 in the assay with 786-0 is 3.35 µM (inactive); in the assay on A498, 0.429 µM (active); in the assay with HCC 2998, 1.41 µM (inactive); with HL-60, 0.659 µM (active); with HOP-92 it was 0.989 µM (active); with NCI-H226 it was 0.501 µM (active). The 50% growth inhibitory concentration (GI50) was 0.558 µM (active) in the assay on NCI-H460; 0.125 µM (active) in the assay on OVCAR-5; 0.993 µM (active) with OVCAR-8; 2.43 µM (inactive) in the assay with SF-268; 2.02 µM (inactive) in the assay with SF-295; 1.97 µM (inactive) in the assay on SK-MEL-28. The GI50 in the assay with SN12C is 4.75 µM (inactive); in the assay on SNB-75, 4.89 µM (inactive); with SW-620 it was 0.929 µM (active); in the assay on TK-10, 0.92 µM (active); in the assay on U-251, 1.54 µM (inactive); in the assay on UO-31, 0.759 µM (active).
